# Laboratory results taken from patent US20160115540A1, “PRODRUGS AND DRUGS” (Biogen MA Inc., priority 2013, published 2016).
# Structures can show the parent of a compound that is named as a salt.
# Tested on: jejunum
# Assay: Transcriptional profiling on Affymetrix GeneChips, single dose, naïve mice: jejunum
# Format: in vivo, C57BL/6 mice
# Method: Treated mice were sacrificed at 2, 7, or 12 hours. Tissues (liver, spleen, kidney, jejunum, cortex, hippocampus, striatum and whole blood) were collected and analyzed by transcriptional profiling on mouse Affymetrix GeneChips.
# Tissues (liver, spleen, kidney, jejunum, cortex, hippocampus, striatum and whole blood) were collected and analyzed by transcriptional profiling on mouse Affymetrix GeneChips.
# Animals were exposed to CO2 and whole blood collected via cardiac puncture. Two 100 μl aliquots of whole blood were collected in 1.5 mL microcentrifuge tubes and snap frozen in liquid nitrogen. Peripheral (liver, spleen, kidney and jejunum) and CNS brain (cerebellum, hippocampus, striatum and cortex) tissues were harvested and snap frozen in liquid nitrogen, with special care taken to collect tissues of similar size and from the same location. All samples were stored at −80° C. until RNA extraction was conducted.
# For RNA preparation, frozen tissues were placed in 2 mL RNAse-free 96-well blocks with 1.5 mL QIAzol Lysis Reagent (QIAgen) and a 3.2 mm stainless steel bead (BioSpec Products, Bartlesville, Okla.). Tissues were disrupted for four cycles of 45 seconds in a Mini-Beadbeater (Biospec Products). RNA was extracted in chloroform and the aqueous phase was mixed with an equal volume of 70% ethanol. Extracted RNA was applied to RNeasy 96 plates and purified by the spin method according to the manufacturer's protocol (RNeasy 96 Universal Tissue Protocol, QIAgen, Hilden Germany).
# Automated sample amplifications and biotin labelings were carried out using the NuGEN Ovation RNA Amplification system V2 (Cat #3100), Ovation WB reagent (Cat #1300) and Encore Biotin module (Cat #4200) (NuGEN Technologies, Inc, San Carlos, Calif.) according to manufacturer's recommendations using an Arrayplex automated liquid handler (Beckman Coulter, Indianapolis, Ind.). Two micrograms of biotin labeled sscDNA probe were hybridized to Affymetrix GeneChip Affymetrix HT_MG-430_PM plate arrays with modified conditions as described in Allaire et al. Washing and staining of the hybridized arrays were completed as described in the GeneChip Expression analysis technical manual for HT plate arrays using the Genechip® Array Station (Affymetrix, Santa Clara, Calif.) with modifications as described in Allaire et al. The processed GeneChip® plate arrays were scanned using GeneTitan scanner (Affymetrix, Santa Clara, Calif.).
# Affymetrix scans were subject to quality control (QC) measures. These tests included a visual inspection of the distribution of raw signal intensities and an assessment of RNA degradation, relative log expression (RLE), and normalized unsealed standard error (NUSE). All sample scans that passed these QC metrics were included in the analysis.
# All CEL files were subjected to GC-content-based Robust Multi-array Average (GCRMA) normalization (version 2.20.0) (Irizarry R A, et al. Nucleic Acids Res 2003; 31:e15; Li C, et al. Genome Biol 2001; 2:[…]0032). Expression levels were log (base 2) transformed.
# All calculations and analyses were carried out using R (version 2.11.1) and Bioconductor computational tools (Gentleman R. Springer Science+Business Media 2005).
compound,measurement,setting,value
"COC(=O)/C=C/C(=O)O [MMF, monomethyl fumarate]",FC Akr1c12 (1422000_PM_at),"100MMF-vs-Veh, 12 h",1.52
same,FC Akr1c13 (1418672_PM_at),"100MMF-vs-Veh, 12 h",2.01
same,FC Aldh1a7 (1418601_PM_at),"100MMF-vs-Veh, 12 h",1.74
same,FC Apob (1457554_PM_at),"100MMF-vs-Veh, 12 h",−1.54
same,FC C030026M15Rik (1431418_PM_at),"100MMF-vs-Veh, 12 h",−1.81
same,FC Dio1 (1417991_PM_at),"100MMF-vs-Veh, 12 h",−1.51
same,FC Ephx1 (1422438_PM_at),"100MMF-vs-Veh, 12 h",2.17
same,FC Gss (1448273_PM_at),"100MMF-vs-Veh, 12 h",1.57
same,FC Gstm1 (1416416_PM_x_at),"100MMF-vs-Veh, 12 h",3.70
same,FC Gstm2 (1416411_PM_at),"100MMF-vs-Veh, 12 h",2.20
same,FC Kif1b (1451642_PM_at),"100MMF-vs-Veh, 12 h",−1.51
same,"Number of genes, DMF Only / MMF Only",Jejunum,35
same,"6-Sep, septin 6 (1424181_PM_at) differential expression","Jejunum, 2 hr",1.56
same,Areg (1421134_PM_at) differential expression,"Jejunum, 2 hr",2.71
same,Blvrb (1451386_PM_at) differential expression,"Jejunum, 2 hr",1.57
same,Bmp2 (1423635_PM_at) differential expression,"Jejunum, 2 hr",−1.55
same,Cbr1 (1460196_PM_at) differential expression,"Jejunum, 2 hr",1.53
same,Dnase2a (1430135_PM_at) differential expression,"Jejunum, 2 hr",1.79
same,Dppa5a (1416552_PM_at) differential expression,"Jejunum, 2 hr",2.64
same,Ereg (1419431_PM_at) differential expression,"Jejunum, 2 hr",2.00
same,Ero1l (1419030_PM_at) differential expression,"Jejunum, 2 hr",1.90
same,Esd (1441604_PM_at) differential expression,"Jejunum, 2 hr",1.52
same,Figf (1438953_PM_at) differential expression,"Jejunum, 2 hr",1.63
same,G6pd2 /// G6pdx (1422327_PM_s_at) differential expression,"Jejunum, 2 hr",1.74
same,Gabarapl1 (1416418_PM_at) differential expression,"Jejunum, 2 hr",1.52
same,Gclc (1424296_PM_at) differential expression,"Jejunum, 2 hr",3.99
same,Gsr (1421816_PM_at) differential expression,"Jejunum, 2 hr",2.19
same,Gss (1441931_PM_x_at) differential expression,"Jejunum, 2 hr",1.92
same,Gsta3 (1423436_PM_at) differential expression,"Jejunum, 2 hr",3.64
same,Gsta4 (1416368_PM_at) differential expression,"Jejunum, 2 hr",1.73
same,Gstm1 (1416416_PM_x_at) differential expression,"Jejunum, 2 hr",2.38
same,Hfe (1422645_PM_at) differential expression,"Jejunum, 2 hr",1.73
same,Hmox1 (1448239_PM_at) differential expression,"Jejunum, 2 hr",1.81
same,Htatip2 (1451814_PM_a_at) differential expression,"Jejunum, 2 hr",1.53
same,Lpin2 (1452837_PM_at) differential expression,"Jejunum, 2 hr",1.61
same,Lrp8 (1440882_PM_at) differential expression,"Jejunum, 2 hr",2.23
same,Mafg (1448916_PM_at) differential expression,"Jejunum, 2 hr",1.95
same,Nqo1 (1423627_PM_at) differential expression,"Jejunum, 2 hr",2.16
same,Osgin1 (1424022_PM_at) differential expression,"Jejunum, 2 hr",1.98
same,Pgm2 (1437240_PM_at) differential expression,"Jejunum, 2 hr",2.09
same,Prr5l (1452834_PM_at) differential expression,"Jejunum, 2 hr",−1.64
same,Prss8 (1418320_PM_at) differential expression,"Jejunum, 2 hr",2.41
same,Setd4 (1435405_PM_at) differential expression,"Jejunum, 2 hr",2.11
same,Slc2a1 (1426600_PM_at) differential expression,"Jejunum, 2 hr",1.68
same,Slc40a1 (1417061_PM_at) differential expression,"Jejunum, 2 hr",2.73
same,Slc48a1 (1450410_PM_a_at) differential expression,"Jejunum, 2 hr",1.62
same,Slfn2 (1450165_PM_at) differential expression,"Jejunum, 2 hr",−1.82
same,Sos1 (1421886_PM_at) differential expression,"Jejunum, 2 hr",−1.57
same,Srxn1 (1425351_PM_at) differential expression,"Jejunum, 2 hr",1.77
same,St3gal6 (1449078_PM_at) differential expression,"Jejunum, 2 hr",1.52
same,Tkt (1436605_PM_at) differential expression,"Jejunum, 2 hr",1.73
same,Tnfaip3 (1433699_PM_at) differential expression,"Jejunum, 2 hr",−1.67
same,Tox3 (1436600_PM_at) differential expression,"Jejunum, 2 hr",1.81
same,Ugt2b5 (1419622_PM_at) differential expression,"Jejunum, 2 hr",3.13
same,Abcc2 (1450109_PM_s_at) differential expression,"Jejunum, 7 hr",1.51
same,Abcc3 (1428988_PM_at) differential expression,"Jejunum, 7 hr",2.26
same,Acsm5 (1437662_PM_at) differential expression,"Jejunum, 7 hr",1.71
same,Akr1c12 /// Akr1c13 (1450455_PM_s_at) differential expression,"Jejunum, 7 hr",1.58
same,Akr1c13 (1418672_PM_at) differential expression,"Jejunum, 7 hr",1.86
same,Aldh1a7 (1418601_PM_at) differential expression,"Jejunum, 7 hr",1.86
same,Areg (1421134_PM_at) differential expression,"Jejunum, 7 hr",2.93
same,Asns (1451095_PM_at) differential expression,"Jejunum, 7 hr",1.60
same,Blvrb (1451386_PM_at) differential expression,"Jejunum, 7 hr",1.55
same,Capn13 (1437960_PM_at) differential expression,"Jejunum, 7 hr",−1.75
same,Cbr1 (1460196_PM_at) differential expression,"Jejunum, 7 hr",1.83
same,Ces1e (1419510_PM_at) differential expression,"Jejunum, 7 hr",2.44
same,Ddc (1426215_PM_at) differential expression,"Jejunum, 7 hr",2.03
same,Dppa5a (1416552_PM_at) differential expression,"Jejunum, 7 hr",1.88
same,Enkur (1428960_PM_at) differential expression,"Jejunum, 7 hr",−1.56
same,Entpd5 (1433763_PM_at) differential expression,"Jejunum, 7 hr",1.60
same,Esd (1441604_PM_at) differential expression,"Jejunum, 7 hr",2.15
same,Fam162a (1451385_PM_at) differential expression,"Jejunum, 7 hr",1.67
same,G6pd2 /// G6pdx (1422327_PM_s_at) differential expression,"Jejunum, 7 hr",2.06
same,G6pdx (1448354_PM_at) differential expression,"Jejunum, 7 hr",1.76
same,Gclc (1424296_PM_at) differential expression,"Jejunum, 7 hr",2.87
same,Gm3776 /// Gsta1 /// Gsta2 (1421041_PM_s_at) differential expression,"Jejunum, 7 hr",1.90
same,Gm14446 (1435529_PM_at) differential expression,"Jejunum, 7 hr",−1.65
same,Gpx2 (1449279_PM_at) differential expression,"Jejunum, 7 hr",1.53
same,Gsr (1421816_PM_at) differential expression,"Jejunum, 7 hr",3.13
same,Gss (1441931_PM_x_at) differential expression,"Jejunum, 7 hr",2.20
same,Gsta3 (1423436_PM_at) differential expression,"Jejunum, 7 hr",5.71
same,Gsta4 (1416368_PM_at) differential expression,"Jejunum, 7 hr",2.52
same,Gstm1 (1416416_PM_x_at) differential expression,"Jejunum, 7 hr",4.80
same,Gstm2 (1416411_PM_at) differential expression,"Jejunum, 7 hr",2.09
same,Gstm4 (1424835_PM_at) differential expression,"Jejunum, 7 hr",5.75
same,Gstm6 (1422072_PM_a_at) differential expression,"Jejunum, 7 hr",2.23
